Experimental data as given in patent publication US11872210B2, “Thiol isomerases inhibitors and use thereof” (WESTERN NEW ENGLAND UNIVERSITY, priority 2017, dated 2024).

How the values were obtained:
ERp57 = biological target: T1, ERp57 (Homo sapiens, UniProt P30101); test: Insulin-based turbidometric assay of thiol isomerase inhibitory activity (ERp57); type: biochemical; settings: specificity assay, insulin turbidity
T1 construct: purchased AbCam (Cambridge Mass.)
T1 sequence (P30101 25-505): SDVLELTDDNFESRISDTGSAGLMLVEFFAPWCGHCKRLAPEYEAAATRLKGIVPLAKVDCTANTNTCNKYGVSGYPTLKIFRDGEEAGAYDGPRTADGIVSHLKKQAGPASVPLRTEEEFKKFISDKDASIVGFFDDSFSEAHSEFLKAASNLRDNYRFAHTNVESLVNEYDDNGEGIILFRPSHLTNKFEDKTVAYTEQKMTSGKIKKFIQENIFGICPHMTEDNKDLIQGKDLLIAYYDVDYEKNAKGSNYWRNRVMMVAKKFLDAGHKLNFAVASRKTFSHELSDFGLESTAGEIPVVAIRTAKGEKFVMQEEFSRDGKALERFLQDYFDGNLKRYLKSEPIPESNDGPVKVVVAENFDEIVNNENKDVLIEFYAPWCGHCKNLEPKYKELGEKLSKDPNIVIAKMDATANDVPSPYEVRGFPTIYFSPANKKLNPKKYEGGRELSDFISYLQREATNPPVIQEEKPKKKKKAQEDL

human washed platelets = test: Collagen stimulated platelet aggregation; type: cell-based; settings: collagen 1 μg/mL, 3 minutes
Method: Human Platelet Preparation: 50 mL of blood was drawn from drug free, consenting individuals, into a syringe containing 5 mL sodium citrate (4% w/v) and 7.5 mL warmed ACD (85 mM sodium citrate, 71 mM citric acid and 110 mM glucose). Blood was centrifuged at 102 g for 20 minutes to obtain platelet-rich plasma (PRP), which was then decanted and 104 prostacyclin (PGI2 125 μg/mL, solubilized in ethanol) added. Platelets were pelleted by centrifugation at 1413 g for 10 minutes, platelet poor plasma was discarded and the pellet resuspended in 25 mL Tyrode's-HEPES buffer (134 mM NaCl, 2.9 mM KCl, 0.34 mM Na2HPO4, 12 mM NaHCO3, 20 mM HEPES, 1 mM MgCl2 and 5 mM glucose pH 7.3), 3 mL of ACD and 10 μL PGI2 were added and then following centrifugation at 1413 g for 10 minutes, the platelet pellet was re-suspended to the appropriate cell density using Tyrode's buffer. Platelets were rested for 30 minutes at 30° C. to allow platelet responses to recover.
Platelet Aggregation: 445 μL of washed platelets at (4×10^8 cells/mL) were incubated for 5 minutes with vehicle (0.1% (v/v) DMSO) or 54 zafirlukast or montelukast. 50 μL of collagen 1 μg/mL (final), was added and light transmission monitored for 3 minutes at 37° C. with constant stirring (1200 rpm) using an aggregometer (Chronolog, USA).
Statistical analyses: All raw data was analyzed by 1-way ANOVA and where appropriate normalized to vehicle. GraphPad Prism was used to perform statistical analysis by ANOVA or students T test. The level of significance of p values is as follows, *p<0.05,**p<0.01, ***p<0.005. Data presented are mean+/−standard error of the mean.
Zafirlukast inhibits platelet aggregation: Human washed platelets (4×10^8 cells/mL) were pre-treated with 0.1 μM-10 μM zafirlukast or vehicle. Platelets were stimulated with collagen 1 μg/mL and allowed to aggregate for 3 minutes. Aggregation traces representative of the response were obtained and dose responses compared.

| SMILES | specificity among thiol isomerases (ERp57) | platelet aggregation, normalized to vehicle (human washed platelets; 10 μM) [%] | inhibition at 2.5 µM (human washed platelets; Homo sapiens, Platelet, 0.05 h, 2.5 μM) [%] | inhibition at 3.75 µM (human washed platelets; Homo sapiens, Platelet, 0.05 h, 3.75 μM) [%] | inhibition at 5 µM (human washed platelets; Homo sapiens, Platelet, 0.05 h, 5 μM) [%] | inhibition at 10 µM (human washed platelets; Homo sapiens, Platelet, 0.05 h, 10 μM) [%] |
| --- | --- | --- | --- | --- | --- | --- |
| CC(C)(C=O)Cc1cc(C(C)(C)C)c(O)c(C(C)(C)C)c1 [CGP-13501] | specific for ERp57 |  |  |  |  |  |
| CC(C)(O)c1ccccc1CC[C@@H](SCC1(CC(=O)O)CC1)c1cccc(/C=C/c2ccc3ccc(Cl)cc3n2)c1 [montelukast, [R-(E)]-1-[[[1-[3-[2-(7-chloro-2-quinolinyl)ethenyl]phenyl]-3-[2-(7-chloro-2-quinolinyl)ethenyl]phenyl]-3-[2-(1-hydroxy-1-methylethyl)phenyl]propyl]thio]methyl cyclopropane acetic acid] |  | 3.99±0.800 | 62.1 | 83.6 | 90.6 | 96.1 |
